Results on 28 compounds are retold here after patent US20240383852A1, “ANTI-VIRAL COMPOUNDS” (INFEX Therapeutics Limited, priority 2021, published 2024).

The target in one data set is T1, SARS-CoV-2 PLpro (Severe acute respiratory syndrome coronavirus 2, UniProt P0DTD1).
T1 construct: containing 60 nM papain-like protease
In words: biochemical.

The test system of data set [1] is human Hep G2 cells (ATCC HB-8065). Kind of data set: Cytotoxicity in Hep G2 cells (CellTiter-Glo). Type of data set: cell-based. Background: ATP-based viability assays read luminescence as a measure of living cells.
Where [2] appears, read: 60 nM papain-like protease, 50 μM Z-RLRGG-AMC, pH 7.5, 37° C., read-out: SARS-CoV-2 PLpro IC50.
Where [3] appears, read: Hep G2 cells, 100 μM test article, 24-hour exposure.

Where a name gives a salt, the structure may show the parent alone. Read-outs that look alike come from different tables or passages of the source.

As a reminder, the IC50 is the concentration that gives 50% inhibition.

With `Cc1ccc(N2CCN(C)CC2)nc1C(=O)N[C@H](C)c1cccc2ccccc12` [Example 15, 3-Methyl-6-(4-methylpiperazin-1-yl)-N-[(1R)-1-(1-naphthyl)ethyl]pyridine-2-carboxamide hydrochloride], the IC50 on SARS-CoV-2 PLpro (setting [2]) was less than 10000 nM. For the same compound, the “% Cell Viability” value in data set [1] (setting [3]) was found to be 76.1%.

Take `COc1cc(Br)cc([C@@H](C)NC(=O)c2cc(N3C[C@H]4C[C@@H]3CN4C)ccc2C)c1` [Example 198, N-[(1R)-1-(3-Bromo-5-methoxy-phenyl)ethyl]-2-methyl-5-[(1R,4R)-5-methyl-2,5-diazabicyclo[2.2.1]heptan-2-yl]benzamide]: the IC50 on SARS-CoV-2 PLpro (setting [2]) is less than 2000 nM. For the same compound, in data set [1] (setting [3]), the “% Cell Viability” value is given as 1.6%.

Consider `COc1ccc([C@@H](C)NC(=O)c2cc(N3CCN(C)CC3)ccc2C)cc1-c1cccc(C(C)(C)O)c1` [Example 204, N-[(1R)-1-[3-[3-(1-Hydroxy-1-methyl-ethyl)phenyl]-4-methoxy-phenyl]ethyl]-2-methyl-5-(4-methylpiperazin-1-yl)benzamide], for which the IC50 on SARS-CoV-2 PLpro (setting [2]) is less than 2000 nM. In data set [1] (setting [3]), the “% Cell Viability” value worked out at 81.4%.

Take `Cc1ccc(N2CCN(C)CC2)cc1C(=O)N[C@H](C)c1cccc(-c2ccc(CO)cc2)c1` [Example 56, N-[(1R)-1-[3-[4-(Hydroxymethyl)phenyl]phenyl]ethyl]-2-methyl-5-(4-methylpiperazin-1-yl)benzamide]: the half-inhibitory concentration (IC50) on SARS-CoV-2 PLpro (setting [2]) is less than 2000 nM. The “% Cell Viability” value in data set [1] (setting [3]) came to 75.1%.

In turn, `Cc1ccc(C2=CCNCC2)c(C)c1C(=O)N[C@H](C)c1cccc2ccccc12` [Example 155, 2,6-Dimethyl-N-[(1R)-1-(1-naphthyl)ethyl]-3-(1,2,3,6-tetrahydropyridin-4-yl)benzamide] came in with a half-maximal inhibitory concentration (IC50) at SARS-CoV-2 PLpro of less than 2000 nM. Moreover, in data set [1] (human, 24 h, 100 μM), the “% Cell Viability” value was determined as 0.6%.

Turning to `Cc1ccc(N2CCN(C)CC2)cc1C(=O)N[C@H](C)c1cc(F)cc(-c2cnn(C)c2)c1` [Example 229, N-[(1R)-1-[3-Fluoro-5-(1-methylpyrazol-4-yl)phenyl]ethyl]-2-methyl-5-(4-methylpiperazin-1-yl)benzamide], the IC50 at SARS-CoV-2 PLpro (setting [2]) was less than 2000 nM. The “% Cell Viability” value in data set [1] (setting [3]) worked out at 66.7%.

For `COc1c(-c2cnn(C)c2)cccc1[C@@H](C)NC(=O)c1cc(N2CCN(C)CC2)ccc1C` [Example 226, N-[(1R)-1-[2-Methoxy-3-(1-methylpyrazol-4-yl)phenyl]ethyl]-2-methyl-5-(4-methylpiperazin-1-yl)benzamide], the 50% inhibitory concentration (IC50) at SARS-CoV-2 PLpro (setting [2]) was less than 10000 nM. Moreover, the “% Cell Viability” value in data set [1] (setting [3]) is reported as 91.4%.

Consider `COc1ccc([C@@H](C)NC(=O)c2cc(N3CCN(C)CC3)ccc2C)cc1OCCN` [Example 295, N-[(1R)-1-[3-(2-Aminoethoxy)-4-methoxy-phenyl]ethyl]-2-methyl-5-(4-methylpiperazin-1-yl)benzamide Dihydrochloride Salt], for which the IC50 on SARS-CoV-2 PLpro (setting [2]) is less than 10000 nM. Further, in data set [1] (setting [3]), the “% Cell Viability” value was 107.9%.

For the compound `COc1cc(-c2cn(C)nc2C)cc([C@@H](C)NC(=O)c2cc(N3CC4CN(C)CC4C3)ccc2C)c1` (stereo partly drawn) [Example 254, N-[(1R)-1-[3-(1,3-Dimethylpyrazol-4-yl)-5-methoxy-phenyl]ethyl]-2-methyl-5-(2-methyl-1,3,3a,4,6,6a-hexahydropyrrolo[3,4-c]pyrrol-5-yl)benzamide], on SARS-CoV-2 PLpro (setting [2]), the IC50 was less than 2000 nM. Also, in data set [1] (setting [3]), the “% Cell Viability” value was 57.0%.

Take `Cc1ccc(N2CCN(C)CC2)cc1C(=O)N[C@H](C)c1cccc2ccccc12` [Example 21, 2-Methyl-5-(4-methylpiperazin-1-yl)-N-[(1R)-1-(1-naphthyl)ethyl]benzamide]: the IC50 at SARS-CoV-2 PLpro (setting [2]) was less than 2000 nM. For the same compound, the “% Cell Viability” value in data set [1] (setting [3]) is reported as 56.9%.

For `COc1ccc([C@@H](C)NC(=O)c2cc(N3CCN(C)CC3)ccc2C)cc1Br` [Example 180, N-[(1R)-1-(3-Bromo-4-methoxy-phenyl)ethyl]-2-methyl-5-(4-methylpiperazin-1-yl)benzamide], the concentration for half-maximal inhibition (IC50) on SARS-CoV-2 PLpro (setting [2]) was less than 2000 nM. Further, in data set [1] (setting [3]), the “% Cell Viability” value came to 93.4%.

On to `Cc1ccc(N2CCN(C)CC2)cc1C(=O)N[C@H](C)c1ccc2c(c1)OCCO2` [Example 182, N-[(1R)-1-(2,3-Dihydro-1,4-benzodioxin-6-yl)ethyl]-2-methyl-5-(4-methylpiperazin-1-yl)benzamide], for which, on SARS-CoV-2 PLpro (setting [2]), the IC50 was less than 5000 nM. In addition, in data set [1] (setting [3]), the “% Cell Viability” value is listed as 104.8%.

For `Cc1ccc(N2CC[C@@H](N3CCCCC3)C2)cc1C(=O)N[C@H](C)c1cccc2ccccc12` [Example 129, 2-Methyl-N-[(1R)-1-(1-naphthyl)ethyl]-5-[(3R)-3-(1-piperidyl)pyrrolidin-1-yl]benzamide], the IC50 on SARS-CoV-2 PLpro (setting [2]) was less than 5000 nM. In data set [1] (setting [3]), the “% Cell Viability” value was 95.5%.

Consider `COc1cc(-c2cc(C(=O)N(C)C)n(C)c2)cc([C@@H](C)NC(=O)c2cc(N3C[C@H]4C[C@@H]3CN4C)ccc2C)c1` [Example 290, 4-[3-Methoxy-5-[(1R)-1-[[2-methyl-5-[(1R,4R)-5-methyl-2,5-diazabicyclo[2.2.1]heptan-2-yl]benzoyl]amino]ethyl]phenyl]-N,N,1-trimethyl-pyrrole-2-carboxamide], for which, at SARS-CoV-2 PLpro (setting [2]), the IC50 was less than 2000 nM. In addition, the “% Cell Viability” value in data set [1] (setting [3]) came out at 72.9%.

On to `Cc1ccc(N2CCN(CCC(=O)O)CC2)cc1C(=O)N[C@H](C)c1cccc(-c2cccc(CO)c2)c1` [Example 170, 3-[4-[3-[[(1R)-1-[3-[3-(Hydroxymethyl)phenyl]phenyl]ethyl]carbamoyl]-4-methyl-phenyl]piperazin-1-yl]propanoic Acid], for which the IC50 on SARS-CoV-2 PLpro (setting [2]) is less than 5000 nM. For the same compound, the “% Cell Viability” value in data set [1] (setting [3]) is recorded as 107.9%.

Regarding `Cc1ccc(N2CCN[C@@H](C(C)C)C2)cc1C(=O)N[C@H](C)c1cccc2ccccc12` [Example 19, 5-[(3S)-3-Isopropylpiperazin-1-yl]-2-methyl-N-[(1R)-1-(1-naphthyl)ethyl]benzamide], at SARS-CoV-2 PLpro (setting [2]), the half-inhibitory concentration (IC50) was less than 2000 nM. Besides, the “% Cell Viability” value in data set [1] (setting [3]) amounted to 1.0%.

On to `COc1cc(-c2cn(C)nc2C)cc([C@@H](C)NC(=O)c2cc(N3CCCNCC3)ccc2C)c1` [Example 265, 5-(1,4-Diazepan-1-yl)-N-[(1R)-1-[3-(1,3-dimethylpyrazol-4-yl)-5-methoxy-phenyl]ethyl]-2-methyl-benzamide], for which the IC50 at SARS-CoV-2 PLpro (setting [2]) was less than 2000 nM. In addition, in data set [1] (setting [3]), the “% Cell Viability” value is recorded as 40.7%.

For the compound `Cc1ccc(N2CCN(CC(=O)N(C)C)CC2)cc1C(=O)N[C@H](C)c1cccc(-c2cnn(C)c2)c1` [Example 113, 5-[4-[2-(Dimethylamino)-2-oxo-ethyl]piperazin-1-yl]-2-methyl-N-[(1R)-1-[3-(1-methylpyrazol-4-yl)phenyl]ethyl]benzamide], the half-maximal inhibitory concentration (IC50) on SARS-CoV-2 PLpro (setting [2]) is less than 20000 nM. Besides, in data set [1] (setting [3]), the “% Cell Viability” value was determined as 72.7%.

As for `COCCN1CCN(c2ccc(C)c(C(=O)N[C@H](C)c3cccc(-c4cnn(C)c4)c3)c2)CC1` [Example 114, 5-[4-(2-Methoxyethyl)piperazin-1-yl]-2-methyl-N-[(1R)-1-[3-(1-methylpyrazol-4-yl)phenyl]ethyl]benzamide], at SARS-CoV-2 PLpro (setting [2]), the IC50 is less than 5000 nM. Moreover, the “% Cell Viability” value in data set [1] (setting [3]) came to 59.0%.

In the case of `Cc1ccc(N2CCN(C)CC2)cc1C(=O)N[C@H](C)c1cccc(C(=O)NCC(N)=O)c1` [Example 310, N-[(1R)-1-[3-[(2-Amino-2-oxo-ethyl)carbamoyl]phenyl]ethyl]-2-methyl-5-(4-methylpiperazin-1-yl)benzamide hydrochloride salt], the IC50 on SARS-CoV-2 PLpro (setting [2]) was less than 5000 nM. Besides, the “% Cell Viability” value in data set [1] (setting [3]) came out at 124.4%.

With `C[C@@H](NC(=O)c1cc(C2CCNC2)ccc1Cl)c1cccc2ccccc12` (stereo partly drawn) [Example 147, 2-chloro-N-[(1R)-1-(1-naphthyl)ethyl]-5-pyrrolidin-3-yl-benzamide], on SARS-CoV-2 PLpro (setting [2]), the IC50 was less than 5000 nM. Besides, the “% Cell Viability” value in data set [1] (setting [3]) was found to be 0.8%.

As to `Cc1ccc(N2CCCN(CCC(=O)O)CC2)cc1C(=O)N[C@H](C)c1cccc2ccccc12` [Example 163, 3-[4-[4-Methyl-3-[[(1R)-1-(1-naphthyl)ethyl]carbamoyl]phenyl]-1,4-diazepan-1-yl]propanoic acid], at SARS-CoV-2 PLpro (setting [2]), the IC50 is less than 5000 nM. The “% Cell Viability” value in data set [1] (setting [3]) is recorded as 122.4%.

For the compound `Cc1ccc(N2CCN(C)CC2)cc1C(=O)N[C@H](C)c1cccc(-c2cccc(C(=O)NCCN)c2)c1` [Example 98, N-[(1R)-1-[3-[3-(2-Aminoethylcarbamoyl)phenyl]phenyl]eth-yl]-2-methyl-5-(4-methylpiperazin-1-yl)benzamide], the IC50 at SARS-CoV-2 PLpro (setting [2]) was less than 2000 nM. Besides, the “% Cell Viability” value in data set [1] (setting [3]) turned out to be 98.5%.

Take `COc1cc(-c2cnn(C)c2)cc([C@@H](C)NC(=O)c2cc(N3CCCNCC3)ccc2C)c1` [Example 263, 5-(1,4-Diazepan-1-yl)-N-[(1R)-1-[3-methoxy-5-(1-methylpyrazol-4-yl)phenyl]ethyl]-2-methyl-benzamide]: the concentration for half-maximal inhibition (IC50) on SARS-CoV-2 PLpro (setting [2]) is less than 2000 nM. In addition, the “% Cell Viability” value in data set [1] (setting [3]) stood at 56.4%.

Consider `C[C@@H](NC(=O)c1cc(N2CCN(C)CC2)ccc1Cl)c1cccc2ccccc12` [Example 130, 2-Chloro-5-(4-methylpiperazin-1-yl)-N-[(1R)-1-(1-naphthyl)ethyl]benzamide], for which the 50% inhibitory concentration (IC50) at SARS-CoV-2 PLpro (setting [2]) is less than 10000 nM. Besides, the “% Cell Viability” value in data set [1] (setting [3]) stood at 1.0%.

Regarding `COc1ccc([C@@H](C)NC(=O)c2cc(N3CCN(C)CC3)ccc2C)cc1-c1cnn(C(F)F)c1` [Example 208, N-[(1R)-1-[3-[1-(Difluoromethyl)pyrazol-4-yl]-4-methoxy-phenyl]ethyl]-2-methyl-5-(4-methylpiperazin-1-yl)benzamide], the IC50 on SARS-CoV-2 PLpro (setting [2]) was less than 2000 nM. Also, in data set [1] (setting [3]), the “% Cell Viability” value is reported as 87.8%.

Take `Cc1ccc(N2CCN(C)CC2)cc1C(=O)N[C@H](C)c1cccc(-c2nccs2)c1` [Example 65, 2-Methyl-5-(4-methylpiperazin-1-yl)-N-[(1R)-1-(3-thiazol-2-ylphenyl)ethyl]benzamide]: at SARS-CoV-2 PLpro (setting [2]), the IC50 was less than 2000 nM. The “% Cell Viability” value in data set [1] (setting [3]) was determined as 77.6%.

`Cc1ccc(N2CCN(C)CC2)cc1C(=O)N[C@H](C)c1cccc(-c2cccc(C(=O)NC[C@H](O)CO)c2)c1` [Example 89]: the half-inhibitory concentration (IC50) on SARS-CoV-2 PLpro (setting [2]) was less than 5000 nM. Moreover, the “% Cell Viability” value in data set [1] (setting [3]) is listed as 96.2%.
